These results are taken from patent publication US20130172318A1, “ANTI-INFLAMMATORY AGENTS” (priority 2010, published 2013).

Test system in one data set: not given
Assay: not given
To be noted: 37° C.; cited from earlier work.
In the case of “(S)-3-(undec-10-enoyl)-tetrahydropyridin-2-one”, the “time completely stable in human serum” value was “at least 7 days”.

In another data set the test system is endotoxin-stimulated TNF-alpha levels. Nature of the data set: Murine sub-lethal endotoxemia model, serum TNF-α by ELISA. Type of data set: in vivo, mouse. To be noted: single dose 1 mg/kg p.o. one hour prior to LPS i.p.; female CD1 mice; serum two hours after challenge. As to the method: The anti-inflammatory efficacy of an exemplary compound according to the present invention was tested using the murine sub-lethal endotoxemia model.
Briefly, the method is as follows: Female CD1 mice (28-30 g, ˜7 weeks of age) were dosed with their respective treatment in sterile filtered 1% CMC by oral gavage in a dose volume of 10 ml/kg one hour prior to an endotoxin (LPS) challenge. The endotoxin challenge was injected by the intraperitoneal route containing 675,000 Endotoxin Units of LPS (E. coli strain 0111:B4 (Code L4130)) in endotoxin free PBS. Mice were left for two hours and then exsanguinated under terminal anaesthesia and blood was taken. Serum was prepared from this terminal bleed and aliquoted and stored at −20° C. Serum TNF-α levels were measured by ELISA per manufacturers instructions (R and D Systems).
Eight animals were treated in each group, and the data for the animal with the highest and lowest TNF-α level in each group were eliminated, and the mean and standard error reported for the remaining six animals. Data for untreated animals were taken from an historical control experiment.
In general terms: An ELISA detects its analyte on a solid surface through an enzyme-linked reagent.
As for `O=C(N[C@H]1CCCNC1=O)c1ccc(F)cc1` [Example 3, (S)-4-Fluoro-N-(2-oxopiperidin-3-yl)benzamide], the “inhibition of endotoxin-stimulated TNF-alpha levels” value was found to be 50%.

The next data set has as its system MCP-1 induced migration of THP-1 cells. Nature of the data set: Inhibition of MCP-1 induced leukocyte migration (transwell, THP-1 cells). Type of data set: cell-based. Conditions: Homo sapiens, MCP-1 25 ng/ml, 2 hours 37° C., read-out: ED50 (concentration required to reduce the MCP-1-induced migration by 50%). How it is done:
In principle, this assay consists of two chambers separated by a porous membrane. The chemoattractant is placed in the lower compartment and the cells are placed in the upper compartment. After incubation for a period at 37° C. the cells move towards the chemoattractant, and the number of cells in the lower compartment is proportional to the chemoattractant activity (relative to a series of controls).
The THP-1 cell line (European Cell culture Collection) were used as the leukocyte cell population.
The following procedure is used for testing the invention compounds for MCP-1 induced leukocyte migration:
First, the cell suspension to be placed in the upper compartment is prepared. The THP-1 cells are pelleted by centrifugation (770×g; 4 mins) and washed with Geys Balanced Salt Solution with 1 mg/ml BSA (GBSS+BSA). This wash is then repeated, and the cells repelleted before being resuspended in a small volume of GBSS+BSA for counting, for example using a standard haemocytometer.
The volume of GBSS+BSA is then adjusted depending on the number of cells present so that the cells are at final density of 4.45×10^6 cells per ml of GBSS+BSA. This ensures that there are […] THP-1 cells in each 25 μl of the solution that will be placed in the upper chamber of the plate.
To test a single compound for its ability to inhibit MCP-1 induced migration, it is necessary to prepare two lots of cells. The suspension of THP-1 cells at 4.45×10^6 cells/ml is divided into two pots. To one pot the inhibitor under test is added at an appropriate final concentration, in an appropriate vehicle (for example at 1 μM in not more than 1% DMSO). To the second pot an equal volume of GBSS+BSA plus vehicle as appropriate (e.g. not more than 1% DMSO) is added to act as a control.
Next, the chemoattractant solution to be placed in the lower compartment is prepared. MCP-1 is diluted in GBSS+BSA to give a final concentration of 25 ng/ml. This is divided into two pots, as for the cell suspension. To one pot, the test compound is added to the same final concentration as was added to the cell suspension, while to the other pot an equal volume of GBSS+BSA plus vehicle as appropriate (e.g. not more than 1% DMSO) is added.
Note that the volume of liquid that needs to be added to make the addition of the text compound needs to be taken into account, when establishing the final concentration of MCP-1 in the solution for the lower compartment and the final concentration of cells in the upper compartment.
Once the chemoattractant solutions for the lower wells and cell solutions for the upper chambers have been prepared, the migration chamber should be assembled. Place 29 μl of the appropriate chemoattractant solution into the lower well of the chamber. Assays should be performed with at least triplicate determinations of each condition. Once all the lower chambers have been filled, apply the prous membrane to the chamber in accordance with the manufacturer's instructions. Finally, apply 25 μl of the appropriate cell solution to each upper chamber. A plastic lid is placed over the entire apparatus to prevent evaporation.
The assembled chamber is incubated at 37° C., 5% CO2, for 2 hours. A suspension of cells in GBSS+BSA is also incubated under identical conditions in a tube: these cells will be used to construct a standard curve for determining the number of cells that have migrated to the lower chamber under each condition.
At the end of the incubation, the liquid cell suspension is gently removed from the upper chamber, and 20 μl of ice-cold 20 mM EDTA in PBS is added to the upper chamber, and the apparatus is incubated at 4° C. for 15 mins. This procedure causes any cells adhering to the underside of the membrane to fall into the lower chamber.
After this incubation the filter is carefully flushed with GBSS+BSA to wash off the EDTA, and then the filter is removed. […]
Regarding `O=C(NC1CCCNC1=O)c1ccccc1` (stereo not shown) [Reference Example 1, 3-(Benzoylamino)tetrahydropyridin-2-one], the EC50 is no more than 100 nM. Consider `O=C(NC1CCCCNC1=O)c1ccccc1` (stereo not shown) [Reference Example 2, 3-(Benzoylamino)azepan-2-one], for which the EC50 is no more than 100 nM. Same read-out and setting: in the case of `Cc1ccc(C(=O)NC2CCCNC2=O)cc1` (stereo not shown) [Reference Example 3, 3-(4′-Methylbenzoylamino)tetrahydropyridin-2-one] it was no more than 100 nM. Regarding `Cc1ccc(C(=O)NC2CCCCNC2=O)cc1` (stereo not shown) [Reference Example 4, 3-(4′-Methylbenzoylamino)azepan-2-one], the EC50 is no more than 100 nM.

In the case of `O=C(NC1CCCNC1=O)c1ccc(Cl)cc1` (stereo not shown) [Reference Example 5, 3-(4′-Chlorobenzoylamino)tetrahydropyridin-2-one], the EC50 was no more than 100 nM. For `O=C(NC1CCCCNC1=O)c1ccc(Cl)cc1` (stereo not shown) [Reference Example 6, 3-(4′-Chlorobenzoylamino)azepan-2-one], the EC50 was no more than 100 nM. The same measure, in the same setting: the same measure for `COc1ccc(C(=O)NC2CCCNC2=O)cc1` (stereo not shown) [Reference Example 7, 3-(4′-Methoxybenzoylamino)tetrahydropyridin-2-one]: no more than 100 nM; for `COc1ccc(C(=O)NC2CCCCNC2=O)cc1` (stereo not shown) [Reference Example 8, 3-(4′-Methoxybenzoylamino)azepan-2-one]: no more than 100 nM; for `O=C(NC1CCCNC1=O)c1ccc(F)cc1` (stereo not shown) [Reference Example 9, 3-(4′-Fluorobenzoylamino)tetrahydropyridin-2-one]: no more than 100 nM. Consider `O=C(NC1CCCCNC1=O)c1ccc(F)cc1` (stereo not shown) [Reference Example 10, 3-(4′-Fluorobenzoylamino)azepan-2-one], for which the EC50 was no more than 100 nM.

In the case of `Cc1cc(C)cc(C(=O)NC2CCCNC2=O)c1` (stereo not shown) [Reference Example 13, 3-(3′,5′-Dimethylbenzoylamino)tetrahydropyridin-2-one], the EC50 is no more than 100 nM. On the same count and under the same terms, in the case of `Cc1cc(C)cc(C(=O)NC2CCCCNC2=O)c1` (stereo not shown) [Reference Example 14, 3-(3′,5′-Dimethylbenzoylamino)azepan-2-one] it was no more than 100 nM.

Test system in the next data set: not given
Assay: not given
Conditions: after intravenous injection; cited from earlier work.
In the case of “c(DCys-DGln-DIle-DTrp-DLys-DGln-DLys-DPro-DAsp-DLeu-DCys)-NH2 [NR58-3.14.3]”, the “half-life period of clearance from blood plasma” value was “less than 30 minutes”.

The data set is the same for the next values; noted with them: in vivo, po; cited from earlier work.
On to “c(DCys-DGln-DIle-DTrp-DLys-DGln-DLys-DPro-DAsp-DLeu-DCys)-NH2 [NR58-3.14.3]”, for which the oral bioavailability entry is reported as “not orally bioavailable”.

For another data set, the system named is MCP-1 induced migration of THP-1 cells.
Assay: not given
To be noted: MCP-1 induced THP-1 cell migration assay; disclosed in WO2005/053702; cited from earlier work.
Regarding `CCCCCCCCCCC(C)(C)C(=O)NC1CCCCNC1=O` (stereo not shown) [2′2′-dimethyldodecenanoyl-3-aminocaprolactam], the “fold more potent as a BSCI than dodecanoyl-3-aminocaprolactam” value is recorded as 10 fold.

The test system of another data set is chemokine-induced migration.
Assay: not given
Conditions: cited from earlier work.
Take `CCCCCCCCCC(C)(C)CC(=O)NC1CCCCNC1=O` (stereo not shown) [3′3′-dimethyldodecanoyl-3-aminocaprolactam]: the “BSCI potency/activity in words (comparative)” value (“BSCI potency/activity in words” for short) is listed as “no more potent”. With `CCCCCCCCCC=CC(=O)NC1CCCCNC1=O` (stereo not shown) [dodec-2′,3′-enoyl-3-aminocaprolactam], the “BSCI potency/activity in words” value is reported as “markedly lower potency”. As for “(S)-3-(undec-10-enoyl)-tetrahydropyridin-2-one”, the “BSCI potency/activity in words” value is on record as “considerably reduced potency”.

Test system in the next data set: not given
Assay: not given
Details: not given
Broadly, the melting point is the temperature of the solid-liquid transition. The molecule `CCCCCCc1ccc(C(=O)N[C@H]2CCCNC2=O)cc1` [Example 23, (S)-3-(4′-Hexylbenzoylamino)-tetrahydropyridin-2-one] registered a melting point of 118 to 119 °C. The same measure, in the same setting: the same measure for `CCCCCCc1ccc(C(=O)N[C@@H]2CCCNC2=O)cc1` [Example 24, (R)-3-(4′-Hexylbenzoylamino)-tetrahydropyridin-2-one]: 117 to 118 °C; for `CCCCCCCCc1ccc(C(=O)N[C@H]2CCCCNC2=O)cc1` [Example 25, (S)-3-(4′-Octylbenzoylamino)-azepan-2-one]: 159 to 160 °C. Consider `CCCCCCCCc1ccc(C(=O)N[C@H]2CCCNC2=O)cc1` [Example 26, (S)-3-(4′-Octylbenzoylamino)-tetrahydropyridin-2-one], for which the melting point is 122 to 123 °C. Consider `CCCCCCCCc1ccc(C(=O)N[C@@H]2CCCNC2=O)cc1` [Example 27, (R)-3-(4′-Octylbenzoylamino)-tetrahydropyridin-2-one], for which the melting point lay within 122 to 123 °C.
